Results reported in US12116358B2, “Substituted indoles and methods of use thereof” (EPIZYME, INC., priority 2018, dated 2024).
Where two headings read alike, the source gives them in different places.

Tests used:
H3K36me3 in A549 cells = assay: In-Cell Western (ICW) assay of SETD2 inhibitors (A549 assay); type: cell-based, human; details: A549 cells, read-out: SETD2 A549
How it was run: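 A549 cells seeded at 4,000/well onto compound and incubated 3 days at 37° C. Methanol-fixed cells stained overnight at 4° C with anti-H3K36me3 (1:1000), then IRDye 800CW secondary with DRAQ5 DNA counterstain. Plates read by Licor imaging at 700 and 800 channels.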

SETD2(1434-1711) = biological target: T1, SETD2(1434-1711) (Homo sapiens, UniProt Q9BYW2); assay: SETD2 (1434-1711) assay; type: biochemical; details: read-out: SETD2 (1434-1711)
T1 construct: SETD2 (1434-1711) Assay; catalogue N/A
T1 sequence (Q9BYW2 1434-1711): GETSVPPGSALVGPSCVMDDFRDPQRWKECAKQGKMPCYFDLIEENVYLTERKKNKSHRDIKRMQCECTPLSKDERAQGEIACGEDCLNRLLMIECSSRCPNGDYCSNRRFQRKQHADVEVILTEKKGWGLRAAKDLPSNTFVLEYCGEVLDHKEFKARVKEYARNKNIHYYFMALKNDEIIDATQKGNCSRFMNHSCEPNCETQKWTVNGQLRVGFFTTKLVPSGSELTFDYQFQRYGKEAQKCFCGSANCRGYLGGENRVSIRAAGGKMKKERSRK

Row | IC50 (H3K36me3 in A549 cells) | IC50 (SETD2(1434-1711)) | IC50 (H3K36me3 in A549 cells; Homo sapiens) | Compound
1 | 14.9 µM | 11.2 µM | – | Cc1cccc2cc(C(=O)NC3CCOCC3)[nH]c12 [compound 505]
2 | 15.1 µM | 4.9 µM | – | Cc1ccc(=O)[nH]c1C(NC(=O)c1cc2cccc(C)c2[nH]1)C1CC1 (centres unmarked) [compound 506]
3 | 15.2 µM | 10.4 µM | – | Cc1cccc2cc(C(=O)NCC3CCCCC3N3CCOCC3)[nH]c12 (centres unmarked) [compound 508]
4 | 15.5 µM | 0.6 µM | – | Cc1cc(C(=O)NC2CCNC2)cnc1C(NC(=O)c1cc2cccc(C)c2[nH]1)C1CC1 (centres unmarked) [compound 510]
5 | – | 11.6 µM | 15.8 µM | Cc1cccc2cc(C(=O)NCCc3ccccc3N3CCOCC3)[nH]c12 [compound 511]
6 | 16.1 µM | 13.2 µM | – | CC(=O)N[C@H]1CC[C@H](NC(=O)c2cc3c(F)ccc(C)c3[nH]2)CC1 [compound 512]
7 | 17.4 µM | 4 µM | – | Cc1cccnc1C(NC(=O)c1cc2cccc(C)c2[nH]1)C1CCC1 (centres unmarked) [compound 513]
8 | 18.3 µM | 24.9 µM | – | COc1ccc(C)c2[nH]c(C(=O)NC(CCC(=O)N3CCOCC3)c3ncccc3C)cc12 (centres unmarked) [compound 514]
9 | 18.5 µM | 25.1 µM | – | COc1cccc2cc(C(=O)NC(CCC(=O)N3CCOCC3)c3ncccc3C)[nH]c12 (centres unmarked) [compound 515]
10 | 18.5 µM | 0.4 µM | – | Cc1cc(C(=O)NC2CCC(N)C2)cnc1C(NC(=O)c1cc2cccc(C)c2[nH]1)C1CC1 (centres unmarked) [compound 516]
11 | 18.5 µM | 3.7 µM | – | Cc1ccc(F)c2cc(C(=O)NC(C(=O)Nc3ccccc3)c3ccccn3)[nH]c12 (centres unmarked) [compound 517]
12 | 19.3 µM | 50 µM | – | Cc1ccc(F)c2cc(C(=O)Nc3nnc(C4CCN(C)CC4)s3)[nH]c12 [compound 519]
13 | 19.8 µM | 12.3 µM | – | Cc1cccc2cc(C(=O)NC3CC(=O)Nc4ccccc4C3)[nH]c12 (centres unmarked) [compound 520]
14 | – | 6.9 µM | 19.9 µM | CCc1cccnc1C(NC(=O)c1cc2cccc(C)c2[nH]1)C1CC1 (centres unmarked) [compound 521]
15 | 20.6 µM | 10.6 µM | – | Cc1cccc2cc(C(=O)NC3CCCCC3)[nH]c12 [compound 522]
16 | 20.8 µM | 8.8 µM | – | Cc1cccnc1C(CCC(=O)Nc1cccnc1)NC(=O)c1cc2cccc(C)c2[nH]1 (centres unmarked) [compound 523]
17 | 20.9 µM | 1.5 µM | – | Cc1ccc(F)c2cc(C(=O)Nc3cccc(-c4nnc(N)[nH]4)c3)[nH]c12 [compound 524]
18 | 20.9 µM | 12.6 µM | – | COC(=O)CC(NC(=O)c1cc2cccc(C)c2[nH]1)c1ccc(Br)cc1 (centres unmarked) [compound 525]
19 | – | 1.9 µM | 22.6 µM | Cc1cccc2cc(C(=O)Nc3ccc4ccccc4c3)[nH]c12 [compound 526]
20 | 24.2 µM | 14.7 µM | – | COC(=O)CC(NC(=O)c1cc2cccc(C)c2[nH]1)c1ccc(C#N)cc1 (centres unmarked) [compound 527]
21 | 24.9 µM | 8.6 µM | – | Cc1cc(C(=O)NC2CCN(C)CC2)c(C)nc1C(NC(=O)c1cc2cccc(C)c2[nH]1)C1CC1 (centres unmarked) [compound 529]
22 | > 25 µM | 0.007 µM | – | Cc1ccc(F)c2cc(C(=O)Nc3cccc(N4CCC(N5CCC(N)CC5)CC4)c3)[nH]c12 [compound 530]

Row | IC50 (H3K36me3 in A549 cells) | IC50 (SETD2(1434-1711)) | IC50 (H3K36me3 in A549 cells; Homo sapiens) | Compound
23 | – | 0.2 µM | > 25 µM | Cc1cccc2cc(C(=O)Nc3cccc(N4CCC(NCCN)CC4)n3)[nH]c12 [compound 531]
24 | > 25 µM | 0.2 µM | – | Cc1ccc(F)c2cc(C(=O)Nc3cccc(-c4n[nH]c(=O)[nH]4)c3)[nH]c12 [compound 532]
25 | > 25 µM | 0.4 µM | – | Cc1cccc2cc(C(=O)Nc3ccc4ncncc4c3)[nH]c12 [compound 533]
26 | > 25 µM | 0.6 µM | – | Cc1cc(C(=O)NC2CNC2)cnc1C(NC(=O)c1cc2cccc(C)c2[nH]1)C1CC1 (centres unmarked) [compound 535]
27 | > 25 µM | 0.8 µM | – | Cc1ccc(F)c2cc(C(=O)Nc3ccc4ncc(CN(C)C)n4c3)[nH]c12 [compound 536]
28 | – | 0.9 µM | > 25 µM | CCN(CC)C1CCc2cc(NC(=O)c3cc4cccc(C)c4[nH]3)ccc2C1 (centres unmarked) [compound 537]
29 | – | 1 µM | > 25 µM | Cc1cccc2cc(C(=O)Nc3ccc4nc[nH]c(=O)c4c3)[nH]c12 [compound 538]
30 | > 25 µM | 1.6 µM | – | Cc1ccc(F)c2cc(C(=O)Nc3cccc(N4CCN(C)CC4c4ccccc4)c3)[nH]c12 (centres unmarked) [compound 539]
31 | – | 1.7 µM | > 25 µM | Cc1ccc(F)c2cc(C(=O)NCCc3ccccc3N3CCN(C)CC3)[nH]c12 [compound 540]
32 | > 25 µM | 2 µM | – | Cc1cccc2cc(C(=O)Nc3ccc4nc(CN5CCNCC5)ncc4c3)[nH]c12 [compound 541]
33 | – | 2.4 µM | > 25 µM | Cc1cc(CC(=O)O)cnc1C(NC(=O)c1cc2c(F)ccc(C)c2[nH]1)C1CC1 (centres unmarked) [compound 542]
34 | > 25 µM | 2.6 µM | – | Cc1cccc2cc(C(=O)NC3CCN(C(=O)CCCN)CC3C)[nH]c12 (centres unmarked) [compound 543]
35 | > 25 µM | 2.9 µM | – | Cc1cc(C(=O)O)cnc1C(NC(=O)c1cc2c(F)ccc(C)c2[nH]1)C1CC1 (centres unmarked) [compound 544]
36 | > 25 µM | 3.1 µM | – | Cc1ccc(F)c2cc(C(=O)Nc3cccc(-c4noc(=O)[nH]4)c3)[nH]c12 [compound 545]
37 | – | 3.9 µM | > 25 µM | Cc1cccc2cc(C(=O)Nc3ccc4nc(CN(C)C)cn4c3)[nH]c12 [compound 546]
38 | > 25 µM | 4 µM | – | Cc1ccc(F)c2cc(C(=O)Nc3cccc(N4CCOc5ccccc54)c3)[nH]c12 [compound 547]
39 | > 25 µM | 5.1 µM | – | Cc1ccc(F)c2cc(C(=O)Nc3ccn(C4CCN(C)CC4)n3)[nH]c12 [compound 548]
40 | > 25 µM | 5.8 µM | – | Cc1cccc2cc(C(=O)NCCc3ccccc3N3CCC(CCN(C)C)CC3)[nH]c12 [compound 549]
41 | > 25 µM | 6.5 µM | – | Cc1ccc(F)c2cc(C(=O)NC(C(=O)NCc3ccccc3)c3ccccn3)[nH]c12 (centres unmarked) [compound 550]
42 | > 25 µM | 6.7 µM | – | Cc1cc2ncc(CN(C)C)n2cc1NC(=O)c1cc2cccc(C)c2[nH]1 [compound 551]
43 | > 25 µM | 7.7 µM | – | Cc1cccc2cc(C(=O)NC3CC4CCC(C3)N4C(=O)CCCN)[nH]c12 (centres unmarked) [compound 552]
44 | > 25 µM | 8.3 µM | – | NCCC(=O)NC1CCC(NC(=O)c2cc3cccc(Br)c3[nH]2)CC1 (centres unmarked) [compound 553]

Row | IC50 (H3K36me3 in A549 cells) | IC50 (SETD2(1434-1711)) | IC50 (H3K36me3 in A549 cells; Homo sapiens) | Compound
45 | > 25 µM | 8.7 µM | – | Cc1cccc2cc(C(=O)NCc3ccccc3N3CCN(C)CC3)[nH]c12 [compound 554]
46 | > 25 µM | 9.2 µM | – | Cc1ccc(F)c2cc(C(=O)Nc3cccc(N4CCN(C5CC5)c5ccccc54)c3)[nH]c12 [compound 555]
47 | > 25 µM | 9.9 µM | – | COC(=O)CC(NC(=O)c1cc2cccc(C)c2[nH]1)c1ccccc1F (centres unmarked) [compound 556]
48 | – | > 10 µM | > 25 µM | Cc1ccc(F)c2cc(C(=O)Nc3nnc(C4CCN(C)CC4)o3)[nH]c12 [compound 557]
49 | > 25 µM | > 10 µM | – | Cc1ccc(F)c2cc(C(=O)Nc3cc(C4CCN(C)CC4)n[nH]3)[nH]c12 [compound 558]
50 | – | > 10 µM | > 25 µM | Cc1ccc(F)c2cc(C(=O)Nc3nnc(C4CCN(C)CC4)[nH]3)[nH]c12 [compound 559]
51 | – | > 10 µM | > 25 µM | Cc1ccc(F)c2cc(C(=O)NC(C(=O)N3CCOCC3)c3ccccn3)[nH]c12 (centres unmarked) [compound 560]
52 | – | > 10 µM | > 25 µM | Cc1ccc(F)c2cc(C(=O)Nc3cn(C4CCN(C)CC4)cn3)[nH]c12 [compound 561]
53 | – | > 10 µM | > 25 µM | Cc1ccc(F)c2cc(C(=O)Nc3cnc(C4CCN(C)CC4)[nH]3)[nH]c12 [compound 562]
54 | – | 10.1 µM | > 25 µM | Cc1cccnc1C(NC(=O)c1cc2cccc(C)c2[nH]1)C1CCCC1 (centres unmarked) [compound 563]
55 | – | 10.9 µM | > 25 µM | Cc1cccc2cc(C(=O)NC(c3cccc4c3NC(=O)C4)C3CC3)[nH]c12 (centres unmarked) [compound 564]
56 | – | 11.6 µM | > 25 µM | Cc1ccc(F)c2cc(C(=O)Nc3cnn(C4CCC(N(C)C)CC4)c3)[nH]c12 (centres unmarked) [compound 565]
57 | – | 12.9 µM | > 25 µM | Cc1cccc2cc(C(=O)NCCc3ccccc3N3CCOC(CN(C)C)C3)[nH]c12 (centres unmarked) [compound 566]
58 | – | 13.6 µM | > 25 µM | Cc1cccnc1C(CCCN1CCNCC1)NC(=O)c1cc2cccc(C)c2[nH]1 (centres unmarked) [compound 567]
59 | – | 13.9 µM | > 25 µM | Cc1cccnc1C(NC(=O)c1cc2cccc(C)c2[nH]1)C(C)(C)C (centres unmarked) [compound 568]
60 | – | 14 µM | > 25 µM | Cc1ccc(F)c2cc(C(=O)Nc3cnn(C4CCN(C)CC4)c3)[nH]c12 [compound 569]
61 | – | 15 µM | > 25 µM | Cc1cccc2cc(C(=O)NCc3cccc4ccnn34)[nH]c12 [compound 570]
62 | > 25 µM | 15.9 µM | – | Cc1cccnc1C(CCC(=O)NC1CCOC1)NC(=O)c1cc2cccc(C)c2[nH]1 (centres unmarked) [compound 571]
63 | – | 16.6 µM | > 25 µM | Cc1cccnc1C(CCC(=O)N1CCNCC1)NC(=O)c1cc2cccc(C)c2[nH]1 (centres unmarked) [compound 572]
64 | – | 16.9 µM | > 25 µM | Cc1cc(C(=O)N[C@H]2CC[C@@H]2N)cnc1C(NC(=O)c1cc2cccc(C)c2[nH]1)C1CC1 (some centres unmarked) [compound 573]
